# Assay results published in ChEMBL document CHEMBL1201862, “PubChem BioAssay data set” (2004).
# The source made the active and inactive calls.
# Tests used:
# Genome polyprotein = Genome polyprotein (dengue virus type 2, UniProt P29990); test: flavivirus cap methylation enzyme inhibition – biochemical, confirmation dose response, primary screen (AID 588689); type: functional
# Protein skinhead-1 = molecular target: T1, Protein skinhead-1 (Caenorhabditis elegans, UniProt P34707); type: functional
# T1 sequence (P34707 whole entry): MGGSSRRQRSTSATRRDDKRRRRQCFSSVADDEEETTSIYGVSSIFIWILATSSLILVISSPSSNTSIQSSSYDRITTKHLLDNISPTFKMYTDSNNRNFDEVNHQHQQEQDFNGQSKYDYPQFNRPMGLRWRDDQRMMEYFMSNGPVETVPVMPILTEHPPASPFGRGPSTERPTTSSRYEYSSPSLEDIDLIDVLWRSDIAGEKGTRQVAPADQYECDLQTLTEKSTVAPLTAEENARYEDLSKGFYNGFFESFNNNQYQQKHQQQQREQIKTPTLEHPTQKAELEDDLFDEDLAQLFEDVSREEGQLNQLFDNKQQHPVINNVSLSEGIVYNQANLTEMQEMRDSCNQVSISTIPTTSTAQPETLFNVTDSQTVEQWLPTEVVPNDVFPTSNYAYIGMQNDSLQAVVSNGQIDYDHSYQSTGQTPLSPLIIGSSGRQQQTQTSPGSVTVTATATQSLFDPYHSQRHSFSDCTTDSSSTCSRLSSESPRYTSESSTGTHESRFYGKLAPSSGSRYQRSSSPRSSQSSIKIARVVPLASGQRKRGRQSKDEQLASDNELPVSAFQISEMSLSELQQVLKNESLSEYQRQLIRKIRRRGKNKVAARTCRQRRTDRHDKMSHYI
# [1] = molecular target: T2, DNA dC->dU-editing enzyme APOBEC-3G (Homo sapiens, UniProt Q9HC16); type: functional
# T2 sequence (Q9HC16 whole entry): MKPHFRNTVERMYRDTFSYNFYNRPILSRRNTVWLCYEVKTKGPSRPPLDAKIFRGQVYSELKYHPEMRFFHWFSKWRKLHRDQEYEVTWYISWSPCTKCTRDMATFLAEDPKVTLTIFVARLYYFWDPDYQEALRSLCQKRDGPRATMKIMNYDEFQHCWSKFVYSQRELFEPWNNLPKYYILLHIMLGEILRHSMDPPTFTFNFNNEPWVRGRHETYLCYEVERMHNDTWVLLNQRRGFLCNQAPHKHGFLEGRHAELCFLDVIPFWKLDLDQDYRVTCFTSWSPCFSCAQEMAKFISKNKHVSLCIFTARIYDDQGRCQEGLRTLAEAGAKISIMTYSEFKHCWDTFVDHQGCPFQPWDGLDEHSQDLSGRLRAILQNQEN
# [2] = molecular target: DNA dC->dU-editing enzyme APOBEC-3A (Homo sapiens, UniProt P31941); test: Dose Response confirmation of small molecule APOBEC3A DNA Deaminase Inhibitors via a fluorescence-based single-stranded DNA deaminase assay. [Related pubchem assays (depositor defined):AID493011, AID493024]; type: functional
# DNA dC->dU-editing enzyme APOBEC-3A, sequence (P31941 whole entry): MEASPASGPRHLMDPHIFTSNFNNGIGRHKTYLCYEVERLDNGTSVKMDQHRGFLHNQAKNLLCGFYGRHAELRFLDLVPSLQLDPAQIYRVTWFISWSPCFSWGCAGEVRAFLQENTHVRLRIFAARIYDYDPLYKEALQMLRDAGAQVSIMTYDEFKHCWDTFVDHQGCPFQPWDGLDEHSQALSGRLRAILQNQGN
# HeLa = test: ATP-based viability loss in HeLa cells – cell-based, CellTiter-Glo luminescence, cherry-pick samples, cytotoxicity control for MITF activator project, dose response (AID 540259); type: functional; conditions: Homo sapiens
# [3] = molecular target: T3, Carboxy-terminal domain RNA polymerase II polypeptide A small phosphatase 1 (Homo sapiens, UniProt Q9GZU7); test: CTDSP1 inhibitors, concentration-response, biochemical, absorbance readout, ultra-high-throughput screen actives (AID 540297); type: functional
# T3 sequence (Q9GZU7 whole entry): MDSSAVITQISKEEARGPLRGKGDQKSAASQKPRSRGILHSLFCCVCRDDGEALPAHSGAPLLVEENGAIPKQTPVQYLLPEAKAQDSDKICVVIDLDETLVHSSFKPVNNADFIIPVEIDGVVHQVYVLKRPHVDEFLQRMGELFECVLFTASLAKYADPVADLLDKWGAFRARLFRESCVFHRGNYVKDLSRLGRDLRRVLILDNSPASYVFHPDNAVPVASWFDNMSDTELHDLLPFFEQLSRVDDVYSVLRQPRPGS
# [4] = A cytotoxicity screen of small molecule inhibitors of the PhoP region in Salmonella typhi identified in the primary screen. [Related pubchem assays: 1850, 1864, 1985 ]; type: functional
# [5] = molecular target: Induced myeloid leukemia cell differentiation protein Mcl-1 (Homo sapiens, UniProt Q07820); type: functional
# Induced myeloid leukemia cell differentiation protein Mcl-1, sequence (Q07820 whole entry): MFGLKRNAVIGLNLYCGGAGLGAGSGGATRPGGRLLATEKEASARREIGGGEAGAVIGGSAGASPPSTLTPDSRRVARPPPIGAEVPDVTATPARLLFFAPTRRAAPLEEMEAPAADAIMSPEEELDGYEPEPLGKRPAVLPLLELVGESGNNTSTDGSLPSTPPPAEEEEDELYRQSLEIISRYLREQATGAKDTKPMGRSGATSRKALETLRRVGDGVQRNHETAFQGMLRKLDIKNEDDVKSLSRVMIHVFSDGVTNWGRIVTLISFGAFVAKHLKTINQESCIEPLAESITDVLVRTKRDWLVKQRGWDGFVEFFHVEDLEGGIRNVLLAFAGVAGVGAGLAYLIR
# [6] = molecular target: T4, Short transient receptor potential channel 4 (Mus musculus, UniProt Q9QUQ5); test: calcium entry via TRPC4 opening agents – cell-based, HEK293 TRPC4/mu-opioid, Fluo-4 calcium, dose response (AID 434937); type: functional
# T4 sequence (Q9QUQ5 whole entry): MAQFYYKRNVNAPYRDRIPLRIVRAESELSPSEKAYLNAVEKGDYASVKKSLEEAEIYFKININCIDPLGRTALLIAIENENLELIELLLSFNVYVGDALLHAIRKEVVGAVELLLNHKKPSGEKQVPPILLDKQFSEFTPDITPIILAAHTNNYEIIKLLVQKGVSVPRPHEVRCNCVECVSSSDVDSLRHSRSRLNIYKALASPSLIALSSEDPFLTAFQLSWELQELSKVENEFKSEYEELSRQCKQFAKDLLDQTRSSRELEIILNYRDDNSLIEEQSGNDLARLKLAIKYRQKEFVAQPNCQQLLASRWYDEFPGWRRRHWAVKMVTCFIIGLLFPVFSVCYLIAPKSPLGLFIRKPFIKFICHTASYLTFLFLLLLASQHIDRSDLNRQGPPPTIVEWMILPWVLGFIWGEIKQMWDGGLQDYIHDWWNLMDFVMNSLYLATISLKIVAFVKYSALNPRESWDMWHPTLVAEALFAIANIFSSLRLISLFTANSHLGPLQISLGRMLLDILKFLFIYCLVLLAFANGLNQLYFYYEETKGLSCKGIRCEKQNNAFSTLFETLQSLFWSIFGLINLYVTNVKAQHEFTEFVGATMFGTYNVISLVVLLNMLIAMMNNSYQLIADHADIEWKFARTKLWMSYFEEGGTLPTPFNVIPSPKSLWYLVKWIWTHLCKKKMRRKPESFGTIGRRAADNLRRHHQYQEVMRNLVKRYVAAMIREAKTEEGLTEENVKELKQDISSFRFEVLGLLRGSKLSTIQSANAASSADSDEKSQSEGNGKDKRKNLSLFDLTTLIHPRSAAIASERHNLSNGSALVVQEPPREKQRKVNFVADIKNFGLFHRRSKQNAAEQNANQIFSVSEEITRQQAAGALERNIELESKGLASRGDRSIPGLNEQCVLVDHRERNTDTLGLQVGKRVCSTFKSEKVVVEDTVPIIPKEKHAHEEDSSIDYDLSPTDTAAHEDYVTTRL
# Large T antigen = Large T antigen (Simian virus 40, UniProt P03070); type: functional, Betapolyomavirus macacae;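 further: Confirmatory-stage PubChem screen for compounds that inhibit SV40 T antigen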
# Large T antigen, sequence (P03070 whole entry): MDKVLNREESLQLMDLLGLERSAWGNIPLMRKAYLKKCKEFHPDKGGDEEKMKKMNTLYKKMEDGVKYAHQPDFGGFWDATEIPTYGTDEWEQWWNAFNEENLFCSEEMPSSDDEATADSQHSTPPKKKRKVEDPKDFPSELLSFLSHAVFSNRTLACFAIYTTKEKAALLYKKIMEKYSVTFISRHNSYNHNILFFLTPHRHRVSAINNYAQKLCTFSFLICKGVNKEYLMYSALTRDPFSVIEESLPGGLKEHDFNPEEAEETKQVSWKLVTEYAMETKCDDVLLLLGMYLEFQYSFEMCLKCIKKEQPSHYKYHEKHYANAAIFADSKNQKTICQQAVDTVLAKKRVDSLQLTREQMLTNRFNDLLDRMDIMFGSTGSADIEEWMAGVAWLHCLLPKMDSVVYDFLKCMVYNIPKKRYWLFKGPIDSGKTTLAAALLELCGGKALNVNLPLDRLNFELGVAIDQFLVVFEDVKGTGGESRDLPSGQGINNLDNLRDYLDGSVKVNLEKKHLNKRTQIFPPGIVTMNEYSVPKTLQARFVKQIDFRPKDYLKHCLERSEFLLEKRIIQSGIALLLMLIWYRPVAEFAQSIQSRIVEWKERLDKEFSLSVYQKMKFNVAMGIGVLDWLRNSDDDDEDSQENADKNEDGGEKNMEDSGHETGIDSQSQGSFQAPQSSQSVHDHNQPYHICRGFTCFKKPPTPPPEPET
# [7] = molecular target: T2, DNA dC->dU-editing enzyme APOBEC-3G; test: Dose Response confirmation of small molecule APOBEC3G DNA Deaminase Inhibitors via a fluorescence-based single-stranded DNA deaminase assay. [Related pubchem assays (depositor defined):AID493012, AID493028]; type: functional
# Fatty acid synthase = Fatty acid synthase (Homo sapiens, UniProt P49327); test: inhibition of human FAS-TE enzyme activity – biochemical, kinetic fluorescence intensity, dose response (AID 624326); type: functional;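 further: rate of fluorescence rise from hydrolysis of a fluorogenic O-methyl fluorescein ester substrate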
# [8] = viability of uninfected HEp-2 cells – cell-based, HTS, cytotoxicity control for RSV inhibitor project, dose response (AID 2410); type: functional; conditions: human respiratory syncytial virus
# [9] = molecular target: Heat shock protein HSP 90-alpha (Homo sapiens, UniProt P07900); type: functional, organism-based
# Nonstructural protein 1 = Nonstructural protein 1 (Influenza A virus, UniProt Q194T2); type: functional, Influenza A virus (A/California/07/2009(H1N1))
# Nonstructural protein 1, sequence (Q194T2 whole entry): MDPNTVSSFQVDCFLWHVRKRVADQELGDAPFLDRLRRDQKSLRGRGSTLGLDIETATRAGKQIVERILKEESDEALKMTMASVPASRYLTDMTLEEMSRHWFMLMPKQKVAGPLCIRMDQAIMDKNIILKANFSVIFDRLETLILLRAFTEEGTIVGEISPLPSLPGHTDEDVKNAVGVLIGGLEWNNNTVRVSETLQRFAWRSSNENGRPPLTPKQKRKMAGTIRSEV
# [10] = OVCAR8 cell viability loss – plate reader, dry powder samples, PAX8 project, dose response (AID 743197); type: functional, cell-based; conditions: OVCAR-8
# [11] = HIV-1 AD8 envelope cell-cell fusion blockers – cherry-pick, dose response (AID 652062); type: functional, cell-based;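 further: luciferase signal from cell-cell fusion driven by HIV-1 clade B AD8 Env; potency is for inhibitors of fusion seen as a drop in luminescence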
# [12] = blockers of HIV-1 envelope-mediated cell-cell fusion – cherry-pick, dose response (AID 652057); type: functional, cell-based
# Paired box protein Pax-8 = Paired box protein Pax-8 (Homo sapiens, UniProt Q06710); test: PAX8 transcriptional activity inhibition in RMG-I – RMG-I cells, luciferase, cherry-pick, dose response (AID 687027); type: functional, cell-based;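 further: luciferase reporter driven by Pax8 target thyroperoxidase promoter measured by SteadyGlo luminescence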
# Paired box protein Pax-8, sequence (Q06710 whole entry): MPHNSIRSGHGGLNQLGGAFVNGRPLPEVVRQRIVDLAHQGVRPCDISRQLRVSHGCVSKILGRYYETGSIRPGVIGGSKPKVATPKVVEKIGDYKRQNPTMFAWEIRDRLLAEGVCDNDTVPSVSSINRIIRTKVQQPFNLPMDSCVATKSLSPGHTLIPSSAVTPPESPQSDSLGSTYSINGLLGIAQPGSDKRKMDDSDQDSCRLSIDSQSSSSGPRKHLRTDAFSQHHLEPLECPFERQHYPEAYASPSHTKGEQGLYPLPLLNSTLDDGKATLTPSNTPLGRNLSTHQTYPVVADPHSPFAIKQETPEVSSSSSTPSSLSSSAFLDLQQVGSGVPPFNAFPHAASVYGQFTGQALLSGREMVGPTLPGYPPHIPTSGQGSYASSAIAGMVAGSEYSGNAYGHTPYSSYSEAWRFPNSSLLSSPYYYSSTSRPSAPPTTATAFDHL
# [13] = OVCAR-3 cell viability loss – plate reader, dry powder samples, PAX8 inhibitor project, dose response (AID 743044); type: functional, cell-based
# Genome polyprotein, sequence (P29990 2492-3391 limits assumed): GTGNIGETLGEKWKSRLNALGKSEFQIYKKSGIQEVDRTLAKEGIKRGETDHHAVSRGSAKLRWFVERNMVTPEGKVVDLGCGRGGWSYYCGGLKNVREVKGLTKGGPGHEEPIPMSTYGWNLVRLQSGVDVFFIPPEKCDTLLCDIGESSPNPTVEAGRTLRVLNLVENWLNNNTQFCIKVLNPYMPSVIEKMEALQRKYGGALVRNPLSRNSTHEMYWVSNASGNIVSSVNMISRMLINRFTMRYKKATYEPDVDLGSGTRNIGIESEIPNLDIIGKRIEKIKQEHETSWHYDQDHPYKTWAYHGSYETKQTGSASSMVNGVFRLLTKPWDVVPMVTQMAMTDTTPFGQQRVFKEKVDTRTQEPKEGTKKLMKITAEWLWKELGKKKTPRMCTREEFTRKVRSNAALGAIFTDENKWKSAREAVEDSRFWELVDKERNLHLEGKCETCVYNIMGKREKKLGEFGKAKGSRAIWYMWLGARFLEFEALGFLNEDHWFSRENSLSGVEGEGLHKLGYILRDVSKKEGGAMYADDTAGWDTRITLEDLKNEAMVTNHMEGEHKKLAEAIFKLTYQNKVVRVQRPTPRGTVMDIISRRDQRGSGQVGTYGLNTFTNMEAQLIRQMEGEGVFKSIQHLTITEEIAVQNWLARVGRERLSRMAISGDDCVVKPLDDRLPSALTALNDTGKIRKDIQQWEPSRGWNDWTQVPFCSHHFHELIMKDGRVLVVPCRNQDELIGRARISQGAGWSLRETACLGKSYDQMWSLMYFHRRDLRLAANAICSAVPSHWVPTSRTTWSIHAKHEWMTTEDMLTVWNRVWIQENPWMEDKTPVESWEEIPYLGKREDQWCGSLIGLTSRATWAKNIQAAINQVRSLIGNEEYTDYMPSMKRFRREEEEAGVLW
smiles,measurement,setting,value
O=C(O)c1ccccc1-c1ccccc1C(=O)Nc1ccc2c(c1)oc(=O)c1ccccc12,IC50,Genome polyprotein,56.3 µM (active)
same,IC50,Protein skinhead-1,> 100 µM (inactive)
CSC1=NCCN1CCOc1ccccc1,IC50,[1],8.19 µM (active)
same,IC50,[2],6.77 µM (active)
CCCc1cc(C(=O)Nc2cc(Cl)ccc2O)no1,AC50,HeLa,> 350 µM (inactive)
c1ccc(-c2cc(-c3nn4c(-c5ccco5)nnc4s3)c3ccccc3n2)cc1,IC50,[3],16.6 µM (active)
CCCCCCCCCCOC(=O)C[N+](C)(C)CC1CCCCC1O (configuration not stated),EC50,[4],> 50 µM (active)
O=C1CCCC2=C1C(c1ccc(O)c(O)c1)Nc1ccc3ncccc3c12 (configuration not stated),IC50,[5],2.67 µM (active)
CCc1ccc(N2Cc3ccccc3C2)cc1,AC50,HeLa,43.5 µM (active)
Nc1cc(N2CCOCC2)c(Cl)cc1[N+](=O)[O-],EC50,[4],> 50 µM (active)
Cc1ccc(C2N(c3ccc(Cl)c(Cl)c3)C(=O)C3CCCN32)o1 (configuration not stated),EC50,[6],4.22 µM (active)
O=C(Nc1ccc(OC(F)F)c(Cl)c1)c1ccccn1,AC50,HeLa,99.7 µM (active)
same,IC50,Protein skinhead-1,51.6 µM (inactive)
O=C1Oc2ccccc2C(=O)/C1=C/c1ccccc1O,IC50,[5],4.18 µM (active)
same,IC50,Genome polyprotein,25.2 µM (active)
Cc1nn(CC(=O)Nc2ccc(N(C)C)cc2)c(C)c1[N+](=O)[O-],IC50,[5],7.62 µM (not active)
same,IC50,Large T antigen,12.3 µM (active)
Clc1ccc(OCCCN2CCCC2)cc1Cl,EC50,[4],> 50 µM (active)
Cc1ccc(N2C(=O)NC(=O)/C(=C/c3ccc(-c4ccc(C(=O)O)c(Cl)c4)o3)C2=O)cc1,IC50,[3],5.49 µM (active)
same,IC50,Large T antigen,32.7 µM (active)
Cc1ccc(N(Cc2cc3cccc(C)c3nc2O)S(=O)(=O)c2ccccc2)c(C)c1,IC50,[1],5.56 µM (active)
same,IC50,[2],4.45 µM (active)
CCOC(=O)C1(CCc2ccccc2)CCN(Cc2c(O)cccc2OC)CC1,EC50,[6],0.299 µM (active)
CCCC(C)c1nnc(NC(=O)c2cc(C(=O)OC)cc([N+](=O)[O-])c2)s1 (configuration not stated),IC50,[7],19.6 µM (active)
same,IC50,Fatty acid synthase,7.04 µM (active)
Fc1ccc(COc2ccc(-c3nnco3)cc2)cc1,IC50,Protein skinhead-1,5.67 µM (active)
O=C1CCCCC1C(=O)c1ccccc1 (configuration not stated),IC50,[5],0.719 µM (not active)
CCC(=O)Nc1ccc(-c2ccc(N3CCC(C)CC3)nn2)cc1,AC50,HeLa,146 µM (active)
COc1ccc2c(c1OC)C(=O)OC2Nc1nc(-c2cc3cc(Br)ccc3oc2=O)cs1 (configuration not stated),AC50,HeLa,290 µM (active)
same,CC50,[8],30.7 µM (active)
CCn1c(CNc2ccc(Cl)cc2)nnc1SCc1ccc(Cl)cc1,AC50,[9],5.01 µM (active)
COc1ccc(-n2c(C)cc(C(=O)C[N+]34CCN(CC3)CC4)c2C)cc1,IC50,[1],2.73 µM (active)
same,IC50,[2],2.64 µM (active)
O=C(Nc1ccc(F)cc1)c1ccc2snnc2c1,EC50,[4],> 50 µM (active)
Cn1c(Cc2ccccc2)nnc1SCC(=O)Nc1ccc2c(c1)OCO2,IC50,Protein skinhead-1,> 100 µM (inactive)
COc1ccccc1NC(=O)CN1CCC(c2nc3cc(C)ccc3[nH]2)CC1,EC50,[4],> 50 µM (active)
COc1ccc2c(c1)[C@H]1[C@H](CO2)[C@H](c2ccccc2)[C@]2(C)C(=O)Nc3ccc(Br)cc3C(=O)N12,AC50,[9],1.59 µM (active)
CCC(=O)c1ccc(OCC(=O)Nc2cc(S(=O)(=O)N3CCCCC3)ccc2N2CCN(CC)CC2)cc1,IC50,[1],5.31 µM (active)
same,IC50,[2],3.32 µM (active)
S=C(NCCc1c[nH]cn1)NC1CCCC1,EC50,[6],0.084 µM (active)
Cc1cccc(N=C2c3cc([N+](=O)[O-])ccc3-c3c2cc([N+](=O)[O-])cc3[N+](=O)[O-])c1,AC50,[9],16.6 µM (active)
same,IC50,Nonstructural protein 1,11.7 µM (active)
COc1ccc(-c2nc(CN3CCC(C(=O)NC4CCCC4)CC3)c(C)o2)cc1OC,EC50,[6],0.473 µM (active)
O=C1C=CC(=Nc2ccc(F)cc2)O1,AC50,[9],2.25 µM (active)
Brc1ccc2nc(-c3ccccc3)c(Cc3ccsc3)n2c1,IC50,Protein skinhead-1,> 100 µM (inactive)
Cn1c2ccccc2c2cc(/C=N/NC(=O)c3cc(O)cc(O)c3)ccc21,IC50,[1],41.6 µM (active)
same,CC50,[8],12.8 µM (active)
same,IC50,[2],16.2 µM (active)
C[C@H](NC(=O)C[C@@H]1C[C@@H]2c3cc(NC(=O)Nc4ccc(C(F)(F)F)cc4)ccc3O[C@@H]2[C@@H](CO)O1)c1ccccc1,AC50,[10],36.8 µM (active)
same,AC50,[11],27.7 µM (active)
same,AC50,[12],20.6 µM (active)
same,AC50,Paired box protein Pax-8,13.2 µM (active)
same,AC50,[13],37.9 µM (active)
C[C@@H]1CN([C@H](C)CO)C(=O)c2cc(NC(=O)Nc3ccc(C(F)(F)F)cc3)ccc2O[C@@H](C)CCCCO[C@H]1CN(C)S(=O)(=O)c1ccc(Cl)cc1,AC50,[10],> 70 µM (inactive)
same,AC50,Paired box protein Pax-8,2.41 µM (active)
same,AC50,[13],26.3 µM (active)
COc1ccccc1-c1ccc2c(c1)[C@@H]1[C@@H](CCN1S(=O)(=O)c1ccccc1F)[C@H](CO)N2,AC50,Paired box protein Pax-8,6.87 µM (active)
same,AC50,[13],20.7 µM (active)
c1ccc2oc(N3CCNCC3)nc2c1,EC50,[6],0.668 µM (active)
COc1ccc(C)c2s/c(=N\C(=O)c3ccc(C(C)=O)cc3)n(C)c12,AC50,HeLa,40.9 µM (active)
O=C(N/N=C/c1ccc(OCCCF)cc1)c1ccc(C(F)(F)F)cc1,IC50,[3],13.2 µM (active)
CN(C)/C=C/C=C1C(=O)CCCC1=O,IC50,[3],7.28 µM (active)
